{"source": "patent US10342881B2", "about": "“Manganese-oxo clusters as contrast agents for magnetic resonance imaging” (Georgetown University, priority 2008, dated 2019)", "key": {"[1]": {"conditions": "tissues outside of liver and kidney; cited from earlier work"}, "[2]": {"test": "Solubility and stability of Mn-12 in water and aqueous acetic acid", "format": "physicochemical", "description": "Based on simple criteria, Mn-12 appears ideal as a contrast agent."}, "[3]": {"test": "NMR relaxivity from slope of 1/T1 or 1/T2 versus concentration", "format": "physicochemical", "conditions": "for r1 / r2: D2O and dilute acetic acid, 500 MHz", "description": "Fresh samples for NMR measurements were prepared immediately prior to use. Both the cluster and cluster coated beads were dissolved in distilled water, and filtered via syringe filter. T1 measurements were measured using the inversion recovery pulse sequence, in a field of 300 MHz or 500 MHz, at room temperature with a least squares fit to 10 data points. The T2 was obtained using a conventional spin echo sequence on a 300 MHz spectrometer and using Carr-Purcell-Meiboom-Gill (CPMG) sequence on 500 MHz Bruker spectrometer. Relaxivity was determined from the slope of a plot of 1/T1 or 1/T2 versus concentration of Mn-12 and Mn-12 coated beads. The cluster concentration was determined by atomic absorption of Mn."}, "[4]": {"conditions": "RT, per mM cluster, listed as Mn-12"}}}
{"molecule": "Cc1[nH+]cc(COP(=O)([O-])[O-])c(CN(CCN(CC(=O)[O-])Cc2c(COP(=O)([O-])O)c[nH+]c(C)c2O)CC(=O)[O-])c1O.[Mn].[Na+].[Na+].[Na+]", "note": "[Mn-DPDP, manganese dipyrodoxaldiphosphate]", "values": [{"measurement": "effect on T1 and T2 in tissues", "setting": "[1]", "result": "only limited effect on T1 and T2"}]}
{"molecule": "[Mn12O12(O2CCH3)16 (H2O)4] [Mn12O12Ac16]", "values": [{"measurement": "stability in presence of excess carboxylic acid", "setting": "[2]; aqueous acetic acid solutions, re-isolated after many hours", "result": "stable in aqueous acetic acid solutions"}, {"measurement": "behaviour upon dissolution in distilled water", "setting": "[2]; distilled water", "result": "within minutes a flocculent material forms"}, {"measurement": "temperature dependence of relaxivity", "setting": "[3]; 37° C. versus room temperature", "result": "decreased at higher temperatures"}, {"measurement": "r1", "setting": "[3]; 37° C.", "result": "2.7 ± 0.1", "unit": "mM⁻¹ s⁻¹"}, {"measurement": "r2", "setting": "[3]; 37° C.", "result": "34 ± 1", "unit": "mM⁻¹ s⁻¹"}, {"measurement": "r1", "setting": "[3]; RT, per mM cluster", "result": "3.0 ± 0.1", "unit": "mM⁻¹ s⁻¹"}, {"measurement": "r2", "setting": "[3]; RT, per mM cluster", "result": "48 ± 1", "unit": "mM⁻¹ s⁻¹"}, {"measurement": "r1", "setting": "[3]; [4]", "result": "3.0 ± 0.1", "unit": "mM⁻¹ s⁻¹"}, {"measurement": "r2", "setting": "[3]; [4]", "result": "48 ± 1", "unit": "mM⁻¹ s⁻¹"}, {"measurement": "field dependence of relaxivity", "setting": "[3]; measurements at 300, 400, and 500 MHz", "result": "increase with higher fields"}]}
